From ChEMBL document CHEMBL1149799, “Bioactive peroxides as potential therapeutic agents” (Eur J Med Chem, 2008)
Converted amounts (≈) assume the structure as drawn.

How the values were obtained:
[1] = Cytotoxicity against human P833 cells; assay type: functional, cell-based
HT-29 = assay: Cytotoxicity against human HT29 cells; assay type: functional, cell-based; conditions: Homo sapiens, HT-29
A549 = assay: Cytotoxicity against human A549 cells; assay type: functional, cell-based; conditions: Homo sapiens, A549
[2] = tested on: Vesicular stomatitis virus; assay: Antiviral activity against Vesicular stomatitis virus; assay type: functional, organism-based
P388 = assay: Cytotoxicity against mouse P388 cells; assay type: functional, cell-based; conditions: Mus musculus, P388; for EC50: read-out: ED50 (the source's name)
Human alphaherpesvirus 1 = assay: Antiviral activity against herpes simplex virus type-1; assay type: functional, organism-based
L1210 = assay: Cytotoxicity against mouse L1210 cells; assay type: functional, cell-based; conditions: Mus musculus, L1210
EL4 = assay: Cytotoxicity against […] cells; assay type: functional, cell-based; conditions: Mus musculus
LoVo = assay: Cytotoxicity against human LoVo cells; assay type: functional
KB = assay: Cytotoxicity against human KB cells; assay type: functional, cell-based; conditions: Homo sapiens
PC-3 = assay: Cytotoxicity against human PC3 cells; assay type: functional, cell-based
[3] = Cytotoxicity against human HERP3B cells; assay type: functional
[4] = Cytotoxicity against mouse B16-F1cells; assay type: functional, cell-based; conditions: B16-F1
[5] = Cytotoxicity against human GXF251L cells; assay type: functional, cell-based; conditions: GXF 251L
[6] = Cytotoxicity against human LXF529L cells; assay type: functional, cell-based; conditions: LXF 529L
[7] = Cytotoxicity against human MAXF401NL cells; assay type: functional, cell-based; conditions: MAXF 401NL
[8] = Cytotoxicity against human UXF1138L cells; assay type: functional, cell-based; conditions: UXF 1138L
[9] = Cytotoxicity against human RXF486L cells; assay type: functional, cell-based; conditions: RXF 486L
[10] = Cytotoxicity against human MAXF642NL cells; assay type: functional, cell-based
KM-20L2 = assay: Cytotoxicity against human KM20L2 cells; assay type: functional
BXPC-3 = assay: Cytotoxicity against human BXPC3 cells; assay type: functional
NCI-H460 = assay: Cytotoxicity against human NCI-H460 cells; assay type: functional, cell-based
SF-268 = assay: Cytotoxicity against human SF268 cells; assay type: functional, cell-based
DU-145 = assay: Cytotoxicity against human DU145 cells; assay type: functional, cell-based
MCF7 = assay: Cytotoxicity against human MCF7 cells; assay type: functional, cell-based

`CC/C=C/[C@H](CC)C[C@]1(CC)C=C(CC)[C@H](CC(=O)O)OO1` [HATERUMADIOXIN A] gave an IC50 [1] of 0.011 mg/L (≈ 0.0354 µM).
With `C[C@H](C(=O)O)[C@@H]1CC[C@](C)(CC[C@]2(C)[C@H](C)CC[C@@]3(C)C(C)(C)CCC[C@]32O)OO1` [MYCAPEROXIDE A] the IC50 (HT-29) was 0.5 mg/L (≈ 1.18 µM), the IC50 (A549) was 0.5 mg/L (≈ 1.18 µM) and the IC50 [2] was 0.25 mg/L (≈ 0.589 µM). It also gave an IC50 (P388) of 0.5 mg/L (≈ 1.18 µM) and an IC50 (Human alphaherpesvirus 1) of 0.25 mg/L (≈ 0.589 µM).
For `CC(CCCC/C=C/CC/C=C\c1ccccc1)C[C@]1(C)C[C@](C)(CC(=O)O)OO1` (some centres not stated) [EPIPLAKINIC ACID C], the IC50 (L1210) was 0.052 mg/L (≈ 0.125 µM), the IC50 (EL4) was 4.6 mg/L (≈ 11.1 µM) and the IC50 (A549) was 2 mg/L (≈ 4.82 µM). For the same compound, the IC50 (P388) was 2.5 mg/L (≈ 6.03 µM), the MIC (LoVo) was 1 mg/L (≈ 2.41 µM) and the MIC (KB) was 0.01 mg/L (≈ 0.0241 µM).
`CC(=O)O[C@H]1C(=O)[C@@]2(C)[C@H]([C@H](OC(=O)c3ccccc3)[C@]3(O)C[C@H](OC(=O)[C@H](O)[C@@H](NC(=O)c4ccccc4)c4ccccc4)C(C)=C1C3(C)C)[C@]1(OC(C)=O)CO[C@@H]1C[C@@H]2O` [PACLITAXEL] gave an Activity (PC-3) of 80 and an Activity [3] of 85.
In the case of `COC(=O)C[C@H]1OO[C@](C)(C/C(C)=C/C(C)=C/Cc2ccccc2)C[C@H]1C` [CAPUCINOATE B], the IC50 [4] is reported as 0.012 mg/L (≈ 0.0322 µM).
For `C[C@H](C(=O)O)[C@@H]1CC[C@@](C)(CC[C@@]2(O)[C@H](C)CC[C@@]3(C)C(C)(C)CCC[C@]23C)OO1` [MYCAPEROXIDE B], the IC50 (HT-29) was 0.5 mg/L (≈ 1.18 µM), the IC50 (A549) was 0.5 mg/L (≈ 1.18 µM) and the IC50 [2] was 0.25 mg/L (≈ 0.589 µM). For the same compound, the IC50 (P388) was 0.5 mg/L (≈ 1.18 µM) and the IC50 (Human alphaherpesvirus 1) was 0.25 mg/L (≈ 0.589 µM).
`CCCCCC[C@@]1(CC)C=C(CC)[C@@H](CC(=O)OC)OO1` gave an IC50 [5] of 8.3 mg/L (≈ 27.8 µM), an IC50 [6] of 7.7 mg/L (≈ 25.8 µM) and an IC50 [7] of 14.9 mg/L (≈ 49.9 µM). The IC50 [8] was 14.1 mg/L (≈ 47.2 µM), the IC50 [9] was 14.4 mg/L (≈ 48.3 µM) and the IC50 [10] was 7.2 mg/L (≈ 24.1 µM).
Compound `CCOc1ccc(OOc2ccc(OCC)c3cc4c(cc23)[C@]2(C)CCC(=O)c3coc(c32)C4=O)c2cc3c(cc12)[C@@]1(C)CCC(=O)c2coc(c21)C3=O` has an Activity (PC-3) of 35 and an Activity [3] of 5.
In the case of `CCCCC[C@@]1(CC)C=C(CC)[C@@H](CC(=O)OC)OO1`, the IC50 [5] is reported as greater than 10 mg/L, the IC50 [6] is reported as greater than 10 mg/L and the IC50 [7] is reported as greater than 10 mg/L. For the same compound, the IC50 [8] was greater than 10 mg/L, the IC50 [9] was greater than 10 mg/L and the IC50 [10] was greater than 10 mg/L.
`CC/C(=C\[C@@]1(CC)C[C@H](CC)[C@H](CC(=O)OC)OO1)[C@@H]1O[C@@H]1CC` [PLAKORSTATIN 2] gave a GI50 (KM-20L2) of 6.7, a GI50 (BXPC-3) of 6.4 and a GI50 (NCI-H460) greater than 10. The GI50 (SF-268) was 1.6, the EC50 (P388) was 0.91 mg/L (≈ 2.67 µM) and the GI50 (DU-145) was 1.7. For the same compound, the GI50 (MCF7) was 3.8.
Work on `CCCC[C@H](CC)C[C@]1(CC)C=C(CC)[C@H](CC(=O)O)OO1` [HATERUMADIOXIN B] yielded an IC50 [1] of 0.0055 mg/L (≈ 0.0176 µM).
For `COC(=O)C[C@H]1OO[C@](C)(C/C(C)=C/C=C/Cc2ccccc2)C[C@H]1C` [CAPUCINOATE A], the IC50 [4] was 0.012 mg/L (≈ 0.0335 µM).
Compound `CC/C(=C\[C@@]1(CC)C[C@H](CC)[C@H](CC(=O)OC)OO1)[C@H]1O[C@H]1CC` [PLAKORSTATIN 1] has a GI50 (KM-20L2) greater than 10, a GI50 (BXPC-3) greater than 10 and a GI50 (NCI-H460) greater than 10. The GI50 (SF-268) was 1.8, the EC50 (P388) was 1.1 mg/L (≈ 3.23 µM) and the GI50 (DU-145) was greater than 10. It also gave a GI50 (MCF7) greater than 10.
`COc1ccc(OOc2ccc(OC)c3cc4c(cc23)[C@]2(C)CCC(=O)c3coc(c32)C4=O)c2cc3c(cc12)[C@@]1(C)CCC(=O)c2coc(c21)C3=O` showed an Activity (PC-3) of 56 and an Activity [3] of 5.
